In patent US8691854B2, “Chemical compounds and the uses thereof as a medicine” (Trophos, priority 2005, dated 2014) one finds GFP ratio data, which are given here for 22 molecules.

One experiment relates to primary neurones isolated from rat striatum expressing mutated huntingtin. Kind of experiment: Protection of striatum neurones in a death test induced by over-expression of a mutated form of huntingtin, GFP as reporter gene. Format: cell-based. The note with it: 0.3 μM compound; survival of GFP-positive cells minus DMSO, relative to BDNF (5 ng/ml) minus DMSO; active when ratio larger than 0.2. The method, then:
Evaluation of the Protection Provided by the Compound of Formula I on Striatum Neurones in a Death Test Induced by Over-Expression of a Mutated Form of Huntingtine by Using GFP as Reporter Gene
Primary cultures of striatum neurones are prepared as described in the literature (Mao L. et al., Methods Mol. Med., 2003, 79: 379-86).
Before sowing, an expression vector containing a promoter element followed by the DNA coding for a truncated form of huntingtin which comprises the first 480 amino acids and 68 CAG codons (Saudou et al., Cell, 1998, 95:55-66), purified beforehand, is introduced by electroporation according to the procedure described by Raoul et al., (Neuron, 2002, 35:1067-83).
A second expression vector, also purified beforehand, containing DNA coding for the green fluorescent protein (GFP) (Columbia University) is also electroporated and is used as a reporter gene.
The cells which survive electroporation are sown at a density of 4,000 cells per well on 96-well plates. The culture is achieved in 175 μl of Neurobasal medium (GIBCO) complemented with final 1 mM of pyruvate and with B-27 1/100 (Beckton Dickinson). The cells are maintained in the culture for 6 days without changing the medium.
[…] Positive controls are made by adding BDNF (Brain-Derived Neurotrophic Factor) at 5 ng/ml (Tebu) finally. The negative controls only receive 0.5% DMSO.
Cell death is evaluated after 7 days by counting the number of living cells expressing GFP.
The activity of the compounds to be tested was evaluated by their capability of preventing death of striatum neurones grown in the Neurobasal medium, as compared with survival of striatum neurones in a medium supplemented with BDNF.
The results are expressed as a ratio evaluating survival of positive GFP cells in the presence of the compound to be tested. This is therefore the number of living cells after treatment with the compound to be tested, reduced by the number of living cells after treatment with DMSO, based on (divided by) the number of survival cells after treatment with BDNF, reduced by the number of living cells after treatment with DMSO.
This ratio therefore represents the survival percentage due to the tested compound relatively to survival induced by BDNF.
In this test, a compound is considered as being active when said ratio is larger than 0.2 i.e. when it has a neuroprotective activity at least equal to 20% of the neuroprotective activity of BDNF.
Regarding `FC(F)(F)c1ccc(-c2csc(NN=CC=Cc3ccccn3)n2)cc1` [Example 26], the GFP ratio was over 0.2.
Same read-out and setting: for `CS(=O)(=O)c1cccc(C=CC=NNc2nc(-c3ccc(C(F)(F)F)cc3)cs2)c1` [Example 24] the value was over 0.2.

The same experiment, now with this note: 1 μM compound; survival of GFP-positive cells minus DMSO, relative to BDNF (5 ng/ml) minus DMSO; active when ratio larger than 0.2.
As for `Fc1ccccc1C=CC=NNc1nc(-c2ccc(Cl)cc2)cs1` [Example 1], the GFP ratio was over 0.2.
Turning to `FC(F)(F)c1ccc(-c2csc(NN=CC=Cc3ccc4c(c3)OCO4)n2)cc1` [Example 21], the GFP ratio is over 0.2.
Still for that read-out and setting: as for `N#Cc1cccc(C=CC=NNc2nc(-c3ccc(C(F)(F)F)cc3)cs2)c1` [Example 11], the figure is over 0.2; as for `O=[N+]([O-])c1cccc(C=CC=NNc2nc(-c3ccc(C(F)(F)F)cc3)cs2)c1` [Example 13], over 0.2; as for `N#Cc1cccc(C=CC=NNc2nc(-c3ccc(Cl)cc3)cs2)c1` [Example 10], over 0.2.
Same read-out and setting: for `Nc1cccc(C=CC=NNc2nc(-c3ccc(Cl)cc3)cs2)c1` [Example 14] the value was over 0.2.
With `Clc1ccc(-c2csc(NN=CC=Cc3ccccn3)n2)cc1` [Example 25], the GFP ratio is over 0.2.
Same read-out and setting: for `CS(=O)(=O)c1cccc(C=CC=NNc2nc(-c3ccc(Cl)cc3)cs2)c1` [Example 18] the value was over 0.2; for `Nc1cccc(C=CC=NNc2nc(-c3ccc(C(F)(F)F)cc3)cs2)c1` [Example 17], over 0.2.

The same experiment, now with this note: 3 μM compound; survival of GFP-positive cells minus DMSO, relative to BDNF (5 ng/ml) minus DMSO; active when ratio larger than 0.2.
In the case of `COc1cc(Cl)ccc1-c1csc(NN=CC=Cc2ccccc2)n1` [Example 22], the GFP ratio is over 0.2.
Still for that read-out and setting: as for `Cc1ccccc1C=CC=NNc1nc(-c2ccc(Cl)cc2)cs1` [Example 9], the figure is over 0.2.
On the same count and under the same terms, for `Oc1cccc(-c2csc(NN=CC=Cc3ccccc3)n2)c1` [Example 7] the value was over 0.2; for `N#Cc1cccc(C=CC=NNc2nc(-c3cccc(O)c3)cs2)c1` [Example 19], over 0.2.
Still for that read-out and setting: for “3-(3-nitrophenyl)-2-propenal-[4-(4-chlorophenyl-2-thiazolyl)hydrazone [Example 2]” the value was over 0.2.
With `FC(F)(F)c1ccc(-c2csc(NN=CC=Cc3ccncc3)n2)cc1` [Example 16], the GFP ratio is over 0.2.
Same read-out and setting: as for `Fc1ccc(C=CC=NNc2nc(-c3ccc(C(F)(F)F)cc3)cs2)cc1` [Example 29], the figure is over 0.2; as for `COc1ccccc1C=CC=NNc1nc(-c2ccc(Cl)cc2)cs1` [Example 3], over 0.2.

Still in this experiment, the particulars now being: 10 μM compound; survival of GFP-positive cells minus DMSO, relative to BDNF (5 ng/ml) minus DMSO; active when ratio larger than 0.2.
With `Clc1ccc(-c2csc(NN=CC=Cc3ccncc3)n2)cc1` [Example 8], the GFP ratio is listed as over 0.2.
With “3-(2-chlorophenyl)-2-propenal-[4-(4-chlorophenyl-2-thiazolyl)hydrazone [Example 12]”, the GFP ratio is on record as over 0.2.
On the same count and under the same terms, for `COc1cccc(C=CC=NNc2nc(-c3ccc(Cl)cc3)cs2)c1` [Example 6] the value was over 0.2.
